Laboratory results: ChEMBL document CHEMBL3217614, “HIV-1 protease inhibitors with a tertiary alcohol containing transition-state mimic and various P2 and P1 substituents” (Medchemcomm, 2011)

Columns and labels:
[1] = tested on: Human immunodeficiency virus; experiment: Antiviral activity against HIV infected in human MT4 cells by XTT assay; type: functional, organism-based; details: Human immunodeficiency virus 1, MT4
[2] = Cytotoxicity against human MT4 cells after 5 days by XTT assay; type: cell-based
[3] = target: Protease (Human immunodeficiency virus 1, UniProt Q9YQ12); experiment: Inhibition of HIV1 protease expressed in Escherichia coli using DABCYL-gamma-Abu-Ser-Gln-ASN-Tyr-Pro-Ile-Val-Gln-EDANS as substrate after 20 mins by fluorescence assay
Protease, sequence (Q9YQ12 whole entry): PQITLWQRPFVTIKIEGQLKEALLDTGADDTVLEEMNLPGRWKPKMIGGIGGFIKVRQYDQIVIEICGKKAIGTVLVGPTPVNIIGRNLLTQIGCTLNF

[4] = Intrinsic clearance in human liver microsomes after 30 mins by LC-MS/MS analysis; type: ADME; details: read-out: CLH
[5] = Apparent permeability from apical to basolateral side in human Caco2 cells at 10 uM after 60 mins; type: ADME, cell-based; details: Caco-2
[6] = Intrinsic clearance in human liver microsomes at 2 uM after 10 to 30 mins by LC-MS/MS analysis; type: ADME; details: read-out: CLH
[7] = Intrinsic clearance in human liver microsomes after 0.5 to 30 mins by LC-MS/MS analysis; type: ADME; details: read-out: CLH
[8] = Apparent permeability from apical to basolateral side in human Caco2 cells at 10 uM after 30 to 120 mins; type: ADME, cell-based; details: Caco-2
[9] = tested on: Human immunodeficiency virus 1; experiment: Antiviral activity against HIV1 RF infected in human MT2 cells after 4 to 7 days by ELISA; type: functional, organism-based; details: Human immunodeficiency virus 1, RF

Row | SMILES | EC50 [1] [µM] | CC50 at 120 h [2] [µM] | Ki [3] [µM] | microsomal CLint [4] [µL/min/mg] | Papp A→B at 1 h, 10 µM [5] [×10⁻⁶ cm/s] | microsomal CLint at 2 µM [6] [µL/min/mg] | microsomal CLint [7] [µL/min/mg] | Papp A→B at 10 µM [8] [×10⁻⁶ cm/s] | EC50 [9] [µM]
1 | COC(=O)N[C@H](C(=O)NN(CCC[C@@](O)(Cc1ccccc1)C(=O)N[C@H]1c2ccccc2C[C@H]1O)Cc1ccc(-c2ccncc2)cc1)C(C)(C)C | 0.17 |  |  |  |  |  |  |  | 
2 | CNC(=O)[C@@H](NC(=O)[C@@](O)(CCCN(Cc1ccc(Br)cc1)NC(=O)[C@@H](NC(=O)OC)C(C)(C)C)Cc1ccccc1)C(C)C |  | > 10 | 0.0027 |  |  |  |  |  | 
3 | CNC(=O)[C@@H](NC(=O)[C@@](O)(CCCN(Cc1ccc(Br)cc1)NC(=O)[C@@H](NC(=O)OC)C(C)(C)C)Cc1ccccc1)C(C)(C)C | 2 | > 10 | 0.0062 | 180 | 4.6 |  |  |  | 
4 | CNC(=O)[C@@H](NC(=O)[C@](O)(CCCN(Cc1ccc(Br)cc1)NC(=O)[C@@H](NC(=O)OC)C(C)(C)C)Cc1ccccc1)C(C)(C)C | > 10 | > 10 | > 5 |  |  |  |  |  | 
5 | CNC(=O)[C@H](CC(C)C)NC(=O)[C@@](O)(CCCN(Cc1ccc(Br)cc1)NC(=O)[C@@H](NC(=O)OC)C(C)(C)C)Cc1ccccc1 | > 10 | > 10 | 0.065 |  |  |  |  |  | 
6 | CNC(=O)[C@H](C)NC(=O)[C@@](O)(CCCN(Cc1ccc(Br)cc1)NC(=O)[C@@H](NC(=O)OC)C(C)(C)C)Cc1ccccc1 | 2.6 | > 10 | 0.018 |  |  |  |  |  | 
7 | CNC(=O)[C@H](Cc1ccccc1)NC(=O)[C@@](O)(CCCN(Cc1ccc(Br)cc1)NC(=O)[C@@H](NC(=O)OC)C(C)(C)C)Cc1ccccc1 | 8.2 | > 10 | 0.17 |  |  |  |  |  | 
8 | COC(=O)N[C@H](C(=O)NN(CCC[C@@](O)(Cc1ccccc1)C(=O)N[C@H](CO)C(C)(C)C)Cc1ccc(Br)cc1)C(C)(C)C | > 10 | > 10 | 0.13 |  |  |  |  |  | 
9 | CNC(=O)[C@@H](NC(=O)[C@@](CCCN(Cc1ccc(Br)cc1)NC(=O)[C@@H](NC(=O)OC)C(C)(C)C)(Cc1ccccc1)O[Si](C)(C)C(C)(C)C)C(C)(C)C | > 10 | > 10 | 2.7 |  |  |  |  |  | 
10 | CNC(=O)[C@@H](NC(=O)[C@@](O)(CCCN(Cc1ccc(-c2ccccc2)cc1)NC(=O)[C@@H](NC(=O)OC)C(C)(C)C)Cc1ccccc1)C(C)(C)C | 1 | > 50 | 0.0046 | > 300 | 21 |  |  |  | 
11 | CNC(=O)[C@@H](NC(=O)[C@@](O)(CCCN(Cc1ccc(-c2cccnc2)cc1)NC(=O)[C@@H](NC(=O)OC)C(C)(C)C)Cc1ccccc1)C(C)(C)C | 1 | > 50 | 0.0031 | 63 | < 1 |  |  |  | 
12 | CNC(=O)[C@@H](NC(=O)[C@@](O)(CCCN(Cc1ccc(-c2ccncc2)cc1)NC(=O)[C@@H](NC(=O)OC)C(C)(C)C)Cc1ccccc1)C(C)(C)C | 1.1 | > 50 | 0.0035 | 20 | 1.9 |  |  |  | 
13 | CNC(=O)[C@@H](NC(=O)[C@@](O)(CCCN(Cc1ccc(-c2ccsc2)cc1)NC(=O)[C@@H](NC(=O)OC)C(C)(C)C)Cc1ccccc1)C(C)(C)C | 1 | > 50 | 0.0036 |  |  |  |  |  | 
14 | CNC(=O)[C@@H](NC(=O)[C@@](O)(CCCN(Cc1ccc(-c2ccc3c(c2)OCO3)cc1)NC(=O)[C@@H](NC(=O)OC)C(C)(C)C)Cc1ccccc1)C(C)(C)C | 1.2 | > 50 | 0.0048 |  |  |  |  |  | 
15 | CNC(=O)[C@@H](NC(=O)[C@@](O)(CCCN(Cc1ccc(C#Cc2ccccn2)cc1)NC(=O)[C@@H](NC(=O)OC)C(C)(C)C)Cc1ccccc1)C(C)(C)C | 1.2 | > 50 | 0.007 |  |  |  |  |  | 
16 | CNC(=O)[C@@H](NC(=O)[C@@](O)(CCCN(Cc1ccc(C#Cc2cccnc2)cc1)NC(=O)[C@@H](NC(=O)OC)C(C)(C)C)Cc1ccccc1)C(C)(C)C | 2.1 | > 50 | 0.0034 | > 300 | 6.1 |  |  |  | 
17 | CNC(=O)[C@@H](NC(=O)[C@@](O)(CCCN(Cc1ccc(C#Cc2ccncc2)cc1)NC(=O)[C@@H](NC(=O)OC)C(C)(C)C)Cc1ccccc1)C(C)(C)C | 8.9 | > 50 | 0.0066 |  |  |  |  |  | 
18 | CNC(=O)[C@@H](NC(=O)[C@@](O)(CCCN(Cc1ccc(-c2ccccn2)cc1)NC(=O)[C@@H](NC(=O)OC)C(C)(C)C)Cc1ccccc1)C(C)(C)C | 4.9 | > 50 | 0.0063 |  |  |  |  |  | 
19 | CNC(=O)[C@@H](NC(=O)[C@@](O)(CCCN(Cc1ccc(-c2nccs2)cc1)NC(=O)[C@@H](NC(=O)OC)C(C)(C)C)Cc1ccccc1)C(C)(C)C | 3.7 | > 50 | 0.0035 |  |  |  |  |  | 
20 | COC(=O)N[C@H](C(=O)N[C@@H](Cc1ccccc1)[C@@H](O)CN(Cc1ccc(-c2ccccn2)cc1)NC(=O)[C@@H](NC(=O)OC)C(C)(C)C)C(C)(C)C [ATAZANAVIR] |  |  |  |  |  | 90 | 140 | 5.3 | 0.0039
